One test deals with T1, AII receptors (Cavia porcellus, UniProt Q9WV26).
T1 construct: the source of cell surface membranes is the guinea pig adrenal gland; from tissue; host or cells: guinea pig adrenal gland, cell surface membrane fraction
T1 sequence (Q9WV26 1-359): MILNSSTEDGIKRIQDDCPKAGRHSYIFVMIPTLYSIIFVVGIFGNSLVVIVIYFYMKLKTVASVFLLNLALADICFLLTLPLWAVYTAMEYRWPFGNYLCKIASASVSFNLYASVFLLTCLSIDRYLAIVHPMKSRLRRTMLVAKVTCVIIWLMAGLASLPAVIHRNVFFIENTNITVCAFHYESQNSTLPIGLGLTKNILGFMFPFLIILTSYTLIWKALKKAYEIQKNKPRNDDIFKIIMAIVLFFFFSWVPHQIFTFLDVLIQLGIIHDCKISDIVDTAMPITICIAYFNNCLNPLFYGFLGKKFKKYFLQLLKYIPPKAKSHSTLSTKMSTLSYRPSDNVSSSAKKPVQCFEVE
Put plainly: Test A: displacement of radiolabelled AII binding to guinea pig adrenal gland cell surface membranes. As to conditions: read-out: IC50 (concentration for 50% displacement of radiolabelled AII binding). On the procedure: Test A: This in vitro procedure involves the incubation of the test compound initially at a concentration of 100 micromolar (or less) in a buffered mixture containing fixed concentrations of radiolabelled AII and a cell surface membrane fraction prepared from a suitable angiotensin target tissue. In this test, the source of cell surface membranes is the guinea pig adrenal gland which is well known to respond to AII. Interaction of the radiolabelled AII with its receptors (assessed as radiolabel bound to the particulate membrane fraction following removal of unbound radiolabel by a rapid filtration procedure such as is standard in such studies) is antagonized by compounds which also bind to the membrane receptor sites and the degree of antagonism (observed in the test as displacement of membrane-bound radioactivity) is determined readily by comparing the receptor-bound radioactivity in the presence of the test compound at the specified test concentration with a control value determined in the absence of the test compound. Using this procedure compounds showing at least 50% displacement of radiolabelled AII binding at a concentration of 10^-4 M are retested at lower concentrations to determine their potency. […]

The test system of test [1] is angiotensin II-induced pressor responses. Put plainly: Test C: antagonism of angiotensin II-induced pressor responses in rats. As to conditions: iv, rat, i.v. administration. It counts as in vivo. The protocol:
Test C: This in vivo test involves using terminally-anaesthetised or conscious rats in which an arterial catheter has been implanted under anaesthesia for the measurement of changes in blood pressure. The AII antagonistic effects of the test compound following oral or parenteral administration, are assessed against angiotensin II-induced pressor responses. To ensure that the effect is specific, the effect of the test compound on vasopressin-induced pressor responses may also be determined in the same preparation.

Structures are written as SMILES. pIC50: −log10 of the molar value.

As for `COC(=O)c1c(OCc2ccc(-c3ccccc3-c3nnn[nH]3)cc2)cc(C)nc1C.Cl` [Example 2, methyl 2,6-dimethyl-4-[(2'-(1H-tetrazol-5-yl)biphenyl-4-yl)methoxy]pyridine-3-carboxylate hydrochloride], the pIC50 on AII receptors was 7.30. The ED50 – broadly, the midpoint of the dose-response relation – in test [1] came out at 0.1 mg/kg.

Source of the values: patent US5198439A, “Angiotension II antagonizing pyridine derivatives” (Imperial Chemical Industries PLC, priority 1990, dated 1993).
